Laboratory results: patent US8044029B2, “Sulfatides for treatment of autoimmune disorders” (Torrey Pines Institute for Molecular Studies, priority 2005, dated 2011)

Tested on: chronic-relapsing EAE in SJL/J mice
Test: Chronic-relapsing EAE, PLP139-151-immunized SJL/J mice
Assay type: in vivo, mouse
Conditions: 20 μg intraperitoneally at the onset of EAE, FIG. 3
Procedure: (§1) Wild type, SJL/J female mice, 6-8 week of age were immunized once subcutaneously with 75 μg of proteolipid protein peptide PLP139-151 emulsified in incomplete Freund's adjuvant (Difco, Detroit, Mich., USA) supplemented with attenuated M. tuberculosis (DIFCO) to 2 mg/ml. Mice were observed daily for signs of EAE for 50 days. The average disease score for each group was calculated by averaging the maximum severity of all of the affected animals in the group. Disease severity was scored on a 5-point scale, as described earlier: 1, flaccid tail; 2, hind limb weakness; 3, hind limb paralysis; 4, whole body paralysis; 5, moribund or death.
In the treatment protocol, 20 μg of bovine brain sulfatide in 200 μl of PBS or vehicle was given intraperitoneally at the onset of EAE and 2 weeks later. […]
as §1, with “wk” for “week”, “PLP139-151” for “proteolipid protein”, “peptide” for “peptide PLP139-151”, “IFA (DIFCO)” for “incomplete Freund's adjuvant (Difco, Detroit, Mich., USA)”, “Mice were observed daily for signs of EAE for 50 days.” left out, “death. […]” for “death.”

Structure (SMILES): CCCCCCCC/C=C\CCCCCCCCCCCCCC(=O)N[C@@H](CO[C@@H]1O[C@H](CO)[C@H](O)[C@H](OS(=O)(=O)O)[C@H]1O)[C@H](O)/C=C/CCCCCCCCCCCCC [cis-tetracosenoyl sulfatide, (2S, 3R, 4E)-N-nervonic-1-[-D-(3-sulfate)-galactopyranosyl]-2-amino-octadecene-3-ol]
- effect on ongoing chronic-relapsing EAE (disease score, 5-point scale): reverses ongoing chronic-relapsing EAE
